Experiment: AUC in beagle dog at 10 mg/kg, iv bolus dose
Type: ADME, organism-based, Canis lupus familiaris
Parameters: dose 10 mg/kg, route intravenous
Conditions: plasma

Row | Compound | AUC [ng·h/mL]
1 | N#CC1(c2cc(CCO)cc(-c3ccnc4[nH]nc(C(F)(F)F)c34)c2)CC1 | 130
2 | N#CC1(c2cc(C[C@@H](O)CO)cc(-c3ccnc4[nH]nc(C(F)(F)F)c34)c2)CC1 | 4400
